Measurements as given in patent US20140235578A1, “METHODS FOR TREATING NEOPLASIA AND FOR IDENTIFYING COMPOSITIONS USEFUL IN SUCH THERAPY” (priority 2007, published 2014).
Where a SMILES comes first, the peptide text is derived from it. The star is where a group is joined. Cbz = O=C(OCc1ccccc1)*

What was measured:
SV40-transformed MEFs = experiment: Plasmid integration assay; format: cell-based, mouse; conditions: 2 μM, added 30 min prior to and during transfection
Experimental: Transformed top2β^+/Δ2 and top2β^Δ2/Δ2 MEFs were plated in six-well plates (4×10^5 cellsper well) one day prior to transfection. Transfection was performed with EcoRI-linearized pUCSV-BSD plasmid (containing the blasticidin resistance gene) using the Cellfectin (Invitrogen) transfection reagent (0.1 μg DNA+2 μl Cellfectin). VP-16 was added at the time of transfection. After 6 hr, cells were washed and trypsinized. A small aliquot was removed, reseeded into fresh medium and grown without the selection agent for survival determination. The rest of the cells were reseeded into fresh medium in a 10 cm plate. After 24 hr, the selection agent blasticidin (3 μg/ml) was added. Colonies were stained with methylene blue and counted after 10 days. Where indicated, the proteasome inhibitor MG132 (2 μM) was added 30 min prior to and during transfection. Integration frequency was determined as the ratio of the number of blasticidin-resistant colonies and the number of surviving cells.

H9C2 cardiomyocytes = format: cell-based
Experimental: Vitamin C and NAC were added 30 min prior to doxorubicin. Cell lysates were then analyzed by Western blotting using anti-γ-H2AX or anti-α-tubulin antibody. […] Cell lysates were then analyzed by Western blotting (upper panel) using anti-γ-H2AX or anti-α-tubulin antibody. Quantification of γ-H2AX signals is shown in the lower panel. C, H9C2 cells were treated with 0.1% DMSO (labeled DMSO), bortezomib (1 μM) or MG132 (4 μM) for 30 min, followed by co-treatment with either 0.1% DMSO (labeled control) or 0.5 μM doxorubicin (labeled Doxo) for 1.5 hrs. Neutral comet assay was then performed as described in Materials and Methods. The average comet tail moments were plotted as histograms (mean±SEM). *p-value<0.001, t-test.
The amount of Top2 cleavage complexes was measured by a band depletion assay as described in Materials and Methods. Cells were lysed either immediately or after reversal of the Top2 cleavage complexes (labeled R+250). Cell lysates were analyzed by Western blotting using anti-Top2α/Top2β or anti-α-tubulin antibody. […] Cells were then lysed and protein levels of Top2α, and Top2β isozymes were determined by Western blotting. […] Cell lysates were immunoblotted using anti-Top2β antibody. D, H9C2 cells were treated with ICRF187 (100 μM) for 4 hrs, followed by treatment with doxorubicin (Doxo, 0, 0.5 and 1 μM) for 1.5 hrs. […]

MEFs = experiment: Neutral comet assay of VP-16-induced DSBs; format: cell-based, mouse; conditions: co-treatment, data not shown
Experimental: Both wild type and Top2β knockout mouse embryonic fibroblasts (MEFs) were treated with either DMSO (solvent control) or VP-16 (250 μM) for 90 min, followed by incubated in drug-free media for 30 min. Neutral comet assay was then performed. Tail moment (average from 100 cells) was determined for each treatment.

Top2β = Top2β protein level by Western blotting in H9C2 cells; format: cell-based; conditions: 100 μM, 0-6 hrs
Experimental: (§1) The amount of Top2 cleavage complexes was measured by a band depletion assay as described in Materials and Methods. Cells were lysed either immediately or after reversal of the Top2 cleavage complexes (labeled R+250). Cell lysates were analyzed by Western blotting using anti-Top2α/Top2β or anti-α-tubulin antibody. […] Cells were then lysed and protein levels of Top2α, and Top2β isozymes were determined by Western blotting. […] Cell lysates were immunoblotted using anti-Top2β antibody. D, H9C2 cells were treated with ICRF187 (100 μM) for 4 hrs, followed by treatment with doxorubicin (Doxo, 0, 0.5 and 1 μM) for 1.5 hrs. Neutral comet assay was then performed as described in Materials and Methods. The average comet tail moments were plotted as histograms (mean±SEM). * p-value<0.001, t-test.

Top2α = target: T1, Top2α (Rattus norvegicus, UniProt P41516); experiment: Top2α protein level by Western blotting in H9C2 cells; format: cell-based; conditions: 100 μM, 0-6 hrs
T1 construct: endogenous in cells; host or cells: H9C2 cardiomyocytes
T1 sequence (P41516 whole entry): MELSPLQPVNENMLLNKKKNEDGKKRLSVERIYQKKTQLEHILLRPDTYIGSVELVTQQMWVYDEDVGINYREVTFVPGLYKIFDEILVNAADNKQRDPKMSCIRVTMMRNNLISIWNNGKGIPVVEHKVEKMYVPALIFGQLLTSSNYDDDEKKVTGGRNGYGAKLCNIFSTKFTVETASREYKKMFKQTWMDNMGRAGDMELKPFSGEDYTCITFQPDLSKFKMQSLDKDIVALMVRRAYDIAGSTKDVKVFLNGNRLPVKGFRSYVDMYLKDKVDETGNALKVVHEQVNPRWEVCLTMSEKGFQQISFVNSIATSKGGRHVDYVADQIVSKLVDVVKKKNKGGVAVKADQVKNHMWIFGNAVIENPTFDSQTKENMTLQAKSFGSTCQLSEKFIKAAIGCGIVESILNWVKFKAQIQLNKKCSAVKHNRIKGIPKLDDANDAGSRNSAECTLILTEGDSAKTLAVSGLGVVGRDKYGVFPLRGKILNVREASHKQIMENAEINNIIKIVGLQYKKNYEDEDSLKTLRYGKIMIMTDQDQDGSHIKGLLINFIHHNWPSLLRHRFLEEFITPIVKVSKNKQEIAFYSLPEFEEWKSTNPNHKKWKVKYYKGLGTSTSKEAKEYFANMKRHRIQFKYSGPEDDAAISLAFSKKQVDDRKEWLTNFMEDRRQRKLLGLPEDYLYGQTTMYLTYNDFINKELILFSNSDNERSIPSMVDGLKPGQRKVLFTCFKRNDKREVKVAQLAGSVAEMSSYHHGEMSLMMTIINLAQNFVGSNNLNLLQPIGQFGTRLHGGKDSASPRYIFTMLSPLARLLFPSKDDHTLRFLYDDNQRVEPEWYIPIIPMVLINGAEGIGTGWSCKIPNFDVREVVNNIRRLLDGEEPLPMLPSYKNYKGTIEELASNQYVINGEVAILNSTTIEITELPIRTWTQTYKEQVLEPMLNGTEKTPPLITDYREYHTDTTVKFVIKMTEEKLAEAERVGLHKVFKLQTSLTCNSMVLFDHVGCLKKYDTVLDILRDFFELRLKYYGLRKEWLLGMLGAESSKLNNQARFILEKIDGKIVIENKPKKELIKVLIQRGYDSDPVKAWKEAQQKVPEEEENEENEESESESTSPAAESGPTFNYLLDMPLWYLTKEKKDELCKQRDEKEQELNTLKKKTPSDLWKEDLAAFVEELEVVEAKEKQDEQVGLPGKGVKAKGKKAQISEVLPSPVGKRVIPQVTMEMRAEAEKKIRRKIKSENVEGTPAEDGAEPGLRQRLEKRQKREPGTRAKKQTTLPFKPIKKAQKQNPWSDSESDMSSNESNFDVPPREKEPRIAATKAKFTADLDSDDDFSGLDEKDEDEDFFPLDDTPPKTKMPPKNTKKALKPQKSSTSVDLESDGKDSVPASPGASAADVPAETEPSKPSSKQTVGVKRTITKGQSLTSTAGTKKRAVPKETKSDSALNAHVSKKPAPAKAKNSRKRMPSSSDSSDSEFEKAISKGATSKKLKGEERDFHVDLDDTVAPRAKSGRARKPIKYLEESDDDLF
Experimental: as §1

Row | SMILES | effect on VP-16-stimulated plasmid integration (SV40-transformed MEFs) | effect on doxorubicin-induced comet tail moment (H9C2 cardiomyocytes) | effect on VP-16-induced DSBs (MEFs) | protein level of Top2β (Top2β) | level of the Top2α isozyme (Top2α)
1 | CC(C)C[C@@H](C=O)NC(=O)[C@H](CC(C)C)NC(=O)[C@H](CC(C)C)NC(=O)OCc1ccccc1 [MG132, N-[(Phenylmethoxy)carbonyl]-L-leucyl-N-[(1S)-1-formyl-3-methylbutyl]-L-leucinamide] (Cbz-Leu-Leu-Leu-aldehyde) | blocks | significantly reduced | abolish |  | 
2 | C[C@@H](CN1CC(=O)NC(=O)C1)N1CC(=O)NC(=O)C1 [dexrazoxane] |  |  |  | time-dependent disappearance | no significant effect
